Assay results reported in patent US20250353891A1 (MEDIMMUNE LIMITED, priority 2022, published 2025).
Starred links: 1 amine or outer side, 2 acyl side, 3 side chain; linkers in the order of their positions; H or OH if unused. Non-standard residues stand in square brackets, D forms with d. Residues, ends and D or L forms follow the SMILES beside them. Groups on a side chain read outwards from the residue. *: point of attachment. C20 diacid = O=C(O)CCCCCCCCCCCCCCCCCCC(=O)*; X2 = CC(C)(CC(N)=O)[C@H](N[*:1])C(=O)[*:2]; C18 diacid = O=C(O)CCCCCCCCCCCCCCCCC(=O)*; γGlu = O=C(O)[C@H](CCC(=O)[*:2])N[*:1]; X3 = O=C(CN(Cc1c[nH]cn1)[*:1])[*:2]; αMeF = C[C@](N)(Cc1ccccc1)C(=O)O; AEEA = NCCOCCOCC(=O)O; Aib = CC(C)(N)C(=O)O

Biological target: human GLP-1 receptor (hGLP-1R) (Homo sapiens, UniProt P43220)
Sequence (P43220 24-463): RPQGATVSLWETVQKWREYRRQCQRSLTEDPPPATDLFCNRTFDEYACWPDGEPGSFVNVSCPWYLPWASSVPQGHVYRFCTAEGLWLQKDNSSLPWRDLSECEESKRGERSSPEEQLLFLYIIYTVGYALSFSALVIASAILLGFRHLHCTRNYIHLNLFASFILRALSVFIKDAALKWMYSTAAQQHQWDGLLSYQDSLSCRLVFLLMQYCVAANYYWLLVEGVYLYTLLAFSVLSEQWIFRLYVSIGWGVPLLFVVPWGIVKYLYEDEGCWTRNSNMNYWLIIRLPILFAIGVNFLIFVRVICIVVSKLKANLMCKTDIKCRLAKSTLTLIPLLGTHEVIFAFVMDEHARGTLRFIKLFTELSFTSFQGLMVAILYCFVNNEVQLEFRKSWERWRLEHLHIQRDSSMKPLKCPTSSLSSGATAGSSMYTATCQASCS
Experiment: cAMP production (HTRF) in CHO cells expressing hGLP-1R
Type: cell-based
Set-up: expressed in transfected cells
Details: for % Relative Potency Ratio: % GLP-1R activity relative to GLP-1 / % GlucR activity relative to glucagon
Protocol: Cells were re-suspended in assay buffer at a batch-dependent optimized concentration (typically hGLP-1R cells at 1×10^5 cells/mL, hGCGR cells at 2×10^5 cells/mL).
Cells were added to the assay plate using a multidrop dispenser and incubated at room temperature for 30 minutes before measuring the cAMP level using a cAMP dynamic 2 homogeneous time resolved Fluorescence (HTRF) kit (Cisbio Bioassays #62AM4PEJ) following the two-step protocol as per manufacturer's recommendations. In brief, anti-cAMP cryptate (donor fluorophore) and cAMP-d2 (acceptor fluorophore) were made up separately by diluting each 1 in 20 in conjugate and lysis buffer provided in the kit. Anti-CAMP cryptate was added to all wells of the assay plate, followed by cAMP-d2 added to all wells except non-specific binding (NSB) wells (to which conjugate and lysis buffer was added).
Data was transformed to % Delta F as described in the manufacturer's guidelines and analyzed by 4-parameter logistic fit to determine EC50 values.

Row | % Relative Potency Ratio (Table 6) | % Relative Potency Ratio (Table 7) | Structure (SMILES) | % Relative Potency Ratio | also measured
1 | – | 0.4 | CC[C@H](C)[C@H](NC(=O)[C@H](Cc1c[nH]c2ccccc12)NC(=O)[C@H](C)NC(=O)[C@@H](NC(=O)[C@](C)(Cc1ccccc1)NC(=O)[C@H](CC(=O)O)NC(=O)[C@H](CCCCNC(=O)COCCOCCNC(=O)COCCOCCNC(=O)CC[C@H](NC(=O)CCCCCCCCCCCCCCCCC(=O)O)C(=O)O)NC(=O)[C@H](C)NC(=O)[C@H](C)NC(=O)[C@H](CCCNC(=N)N)NC(=O)[C@H](CO)NC(=O)[C@H](CC(=O)O)NC(=O)[C@H](CC(C)C)NC(=O)[C@](C)(Cc1ccccc1)NC(=O)[C@H](CCCCN)NC(=O)[C@H](CO)NC(=O)[C@@H](NC(=O)[C@H](CC(=O)O)NC(=O)[C@H](CO)NC(=O)[C@@H](NC(=O)[C@](C)(Cc1ccccc1)NC(=O)[C@H](CO)NC(=O)CNC(=O)[C@H](Cc1c[nH]cn1)NC(=O)C(C)(C)NC(=O)[C@@H](N)Cc1c[nH]cn1)[C@@H](C)O)C(C)C)[C@@H](C)CC)C(=O)N[C@@H](C)C(=O)N[C@@H](CC(N)=O)C(=O)N[C@H](C(N)=O)[C@@H](C)O [Peptide 230] (H-H[Aib]HGS[αMeF]TSDVSK[αMeF]LDSRAAK([AEEA-AEEA-γGlu-C18 diacid])D[αMeF]IAWIANT-NH2) | – | –
2 | – | 2.9 | CC[C@H](C)[C@H](NC(=O)C(C)(C)NC(=O)[C@H](CCC(N)=O)NC(=O)[C@@H](NC(=O)[C@](C)(Cc1ccccc1)NC(=O)[C@H](CC(=O)O)NC(=O)[C@H](CCCCNC(=O)COCCOCCNC(=O)COCCOCCNC(=O)CC[C@H](NC(=O)CCCCCCCCCCCCCCCCC(=O)O)C(=O)O)NC(=O)[C@H](C)NC(=O)[C@H](C)NC(=O)[C@H](CCCNC(=N)N)NC(=O)[C@H](CO)NC(=O)[C@H](CC(=O)O)NC(=O)[C@H](CC(C)C)NC(=O)[C@](C)(Cc1ccccc1)NC(=O)[C@H](CCCCN)NC(=O)[C@H](CO)NC(=O)[C@@H](NC(=O)[C@H](CC(=O)O)NC(=O)[C@H](CO)NC(=O)[C@@H](NC(=O)[C@](C)(Cc1ccccc1)NC(=O)[C@H](CO)NC(=O)CNC(=O)[C@@H](NC(=O)[C@H](CO)NC(=O)[C@@H](N)Cc1c[nH]cn1)C(C)(C)CC(N)=O)[C@@H](C)O)C(C)C)C(C)C)C(=O)N[C@@H](C)C(=O)N[C@@H](CC(N)=O)C(=O)N[C@H](C(N)=O)[C@@H](C)O [Peptide 324] (H-HS[X2]GS[αMeF]TSDVSK[αMeF]LDSRAAK([AEEA-AEEA-γGlu-C18 diacid])D[αMeF]VQ[Aib]IANT-NH2; N-terminus assumed) | – | –

Second part, the compound before the results:

Row | Structure (SMILES) | % Relative Potency Ratio (Table 6) | % Relative Potency Ratio (Table 7) | % Relative Potency Ratio | also measured
3 | CC(C)C[C@H](NC(=O)[C@H](Cc1c[nH]c2ccccc12)NC(=O)[C@H](CCCNC(=N)N)NC(=O)[C@@H](NC(=O)[C@H](Cc1ccccc1)NC(=O)[C@H](CC(=O)O)NC(=O)[C@H](CCCNC(=N)N)NC(=O)[C@H](C)NC(=O)[C@H](CCCNC(=N)N)NC(=O)[C@H](CCCCNC(=O)CC[C@H](NC(=O)CC[C@H](NC(=O)COCCOCCNC(=O)COCCOCCNC(=O)CC[C@H](NC(=O)CC[C@H](NC(=O)CCCCCCCCCCCCCCCCC(=O)O)C(=O)O)C(=O)O)C(=O)O)C(=O)O)NC(=O)[C@H](CO)NC(=O)[C@H](CC(=O)O)NC(=O)[C@H](CC(C)C)NC(=O)[C@](C)(Cc1ccccc1)NC(=O)[C@H](CCCCN)NC(=O)[C@H](CO)NC(=O)[C@@H](NC(=O)[C@H](CC(=O)O)NC(=O)[C@H](CO)NC(=O)[C@@H](NC(=O)[C@H](Cc1ccccc1)NC(=O)[C@@H](NC(=O)CNC(=O)[C@H](CCC(N)=O)NC(=O)C(C)(C)NC(=O)[C@@H](N)Cc1c[nH]cn1)[C@@H](C)O)[C@@H](C)O)C(C)C)C(C)C)C(=O)N[C@@H](CC(C)C)C(=O)N[C@@H](CCC(=O)O)C(=O)NC(C)(C)C(=O)NCC(=O)O [Peptide 144] (H-H[Aib]QGTFTSDVSK[αMeF]LDSK([γGlu-γGlu-AEEA-AEEA-γGlu-γGlu-C18 diacid])RARDFVRWLLE[Aib]G-OH; N-terminus assumed) | 30.7 | – | – | EC50 (Table 6, peptides modified at position 17, cAMP in CHO hGLP-1R cells, geometric mean, read-out: hGLP-1R EC50): 0.0452 nM
4 | CC(C)C[C@H](NC(=O)[C@H](Cc1c[nH]c2ccccc12)NC(=O)[C@H](CCCNC(=N)N)NC(=O)[C@@H](NC(=O)[C@H](Cc1ccccc1)NC(=O)[C@H](CC(=O)O)NC(=O)[C@H](CCC(N)=O)NC(=O)[C@H](C)NC(=O)[C@H](CCCNC(=N)N)NC(=O)[C@H](CCCCNC(=O)COCCOCCNC(=O)COCCOCCNC(=O)CC[C@H](NC(=O)CCCCCCCCCCCCCCCCC(=O)O)C(=O)O)NC(=O)[C@H](CO)NC(=O)[C@H](CC(=O)O)NC(=O)[C@H](CC(C)C)NC(=O)[C@](C)(Cc1ccccc1)NC(=O)[C@H](CCCCN)NC(=O)[C@H](CO)NC(=O)[C@@H](NC(=O)[C@H](CC(=O)O)NC(=O)[C@H](CO)NC(=O)[C@@H](NC(=O)[C@H](Cc1ccccc1)NC(=O)[C@@H](NC(=O)CNC(=O)[C@H](CCC(N)=O)NC(=O)C(C)(C)NC(=O)[C@@H](N)Cc1c[nH]cn1)[C@@H](C)O)[C@@H](C)O)C(C)C)C(C)C)C(=O)N[C@@H](CC(C)C)C(=O)NC(C)(C)C(=O)N[C@H](C(=O)N[C@@H](CCCCN)C(=O)O)[C@@H](C)O [Peptide 177] | 25.5 | – | – | –
5 | CC[C@H](C)[C@H](NC(=O)[C@H](Cc1c[nH]c2ccccc12)NC(=O)[C@H](CCCCNC(=O)CC[C@H](NC(=O)CC[C@H](NC(=O)CCOCCOCCNC(=O)CC[C@H](NC(=O)CC[C@H](NC(=O)CCCCCCCCCCCCCCCCCCC(=O)O)C(=O)O)C(=O)O)C(=O)O)C(=O)O)NC(=O)[C@@H](NC(=O)[C@H](Cc1ccccc1)NC(=O)[C@H](CC(=O)O)NC(=O)[C@H](CCC(N)=O)NC(=O)[C@H](C)NC(=O)[C@H](C)NC(=O)[C@H](CCC(N)=O)NC(=O)[C@H](CO)NC(=O)[C@H](CC(=O)O)NC(=O)[C@H](CC(C)C)NC(=O)[C@](C)(Cc1ccccc1)NC(=O)[C@H](CCCCN)NC(=O)[C@H](CO)NC(=O)[C@@H](NC(=O)[C@H](CC(=O)O)NC(=O)[C@H](CO)NC(=O)[C@@H](NC(=O)[C@](C)(Cc1ccccc1)NC(=O)[C@H](CO)NC(=O)CNC(=O)[C@H](Cc1c[nH]cn1)NC(=O)C(C)(C)NC(=O)[C@@H](N)Cc1c[nH]cn1)[C@@H](C)O)C(C)C)C(C)C)C(=O)N[C@@H](C)C(=O)N[C@@H](CC(N)=O)C(=O)N[C@H](C(N)=O)[C@@H](C)O [Peptide 357] | – | – | 1.2 | –
6 | CC[C@H](C)[C@H](NC(=O)[C@H](Cc1c[nH]c2ccccc12)NC(=O)[C@H](CCCCNC(=O)COCCOCCNC(=O)COCCOCCNC(=O)CC[C@H](NC(=O)CC[C@H](NC(=O)CCCCCCCCCCCCCCCCCCC(=O)O)C(=O)O)C(=O)O)NC(=O)[C@@H](NC(=O)[C@H](Cc1ccccc1)NC(=O)[C@H](CC(=O)O)NC(=O)[C@H](CCC(N)=O)NC(=O)[C@H](C)NC(=O)[C@H](C)NC(=O)[C@H](CCCNC(=N)N)NC(=O)[C@H](CO)NC(=O)[C@H](CC(=O)O)NC(=O)[C@H](CC(C)C)NC(=O)[C@](C)(Cc1ccccc1)NC(=O)[C@H](CCCCN)NC(=O)[C@H](CO)NC(=O)[C@@H](NC(=O)[C@H](CC(=O)O)NC(=O)[C@H](CO)NC(=O)[C@@H](NC(=O)[C@](C)(Cc1ccccc1)NC(=O)[C@H](CO)NC(=O)CNC(=O)[C@H](Cc1c[nH]cn1)NC(=O)[C@H](CO)NC(=O)CNCc1c[nH]cn1)[C@@H](C)O)C(C)C)C(C)C)C(=O)N[C@@H](C)C(=O)N[C@@H](CC(N)=O)C(=O)N[C@H](C(N)=O)[C@@H](C)O [Peptide 380] (H-[X3]SHGS[αMeF]TSDVSK[αMeF]LDSRAAQDFVK([AEEA-AEEA-γGlu-γGlu-C20 diacid])WIANT-NH2) | – | – | 33.9 | –
